Test results: PMC4942819 (Scientific Reports, 2016)
Where two headings read alike, the source gives them in different places.

Assays:
[1] = system: M. tuberculosis Erdman; experiment: in vivo acute M.tb Erdman infection mouse model; set-up: species or system Mycobacterium tuberculosis; conditions: BALB/c mice
[2] = system: M. tuberculosis Erdman in J774A.1 cells; experiment: macrophage assay, intracellular activity; assay type: cell-based, Mycobacterium tuberculosis; conditions: for Fold(log) reduction: decrease of log10 CFU between D7 and treatment group, J774A.1, 0.02 μM (Fig. 2 legend: 0.02 μg/mL)
Description: As described previously, J774A.1 cells were grown in 75-cm2 cell culture flasks in 10% FBS in Dulbecco’s modified Eagle’s medium (DMEM) until confluency. The cells were detached using a cell scraper, and then centrifuged at 200 g for 5 min at room temperature. The cells were incubated at 37 °C under 5% CO2 for 16 h after distributing into 24-well plates containing coverslips. M. tuberculosis Erdman (ATCC 35801) were diluted to a final concentration of 1 × 10^5 to 3 × 10^5 CFU/mL with DMEM after thawing and sonicating from frozen cultures. And 500 ul of the dilution was dispensed to each well of a new 24-well plate. Followed by, J774A.1 cells on coverslips were infected by incubation with M. tuberculosis Erdman at 37 °C for 2 h. Coverslips were then washed with HBSS and transferred to new 24-well plates. The Cultures were treated in triplicate with compounds at 0.02 μM containing DMEM and incubated at 37 °C under 5% CO2 for 16 h. At D 0 (for untreated controls) and after 7 days of incubation, macrophage cells were lysed by addition of 200 μL of 0.25% sodium dodecyl sulfate. The plates were incubated at 37 °C for 10 min, and 200 μL of DMEM was added. The lysate was sampled using a microtube and sonicated for 15 s. Then 1:1, 1:10, 1:100, and 1:1,000 dilutions were plated on 7H11 agar plates and CFU counts determined after 2 to 3 weeks of incubation at 37 °C.

[3] = system: Vero cells; experiment: cytotoxicity, MTT assay; assay type: cell-based; conditions: Chlorocebus sabaeus
Description: The compounds were examined for toxicity (IC50) using MTT assay. Briefly, cells (3 ~ 5 × 10^3 cells/well) were seeded in a 96-well plate. After 24 h incubation, the cells were treated with various concentrations of drugs for 24, 48, 72 h, respectively. Columns one and two in the assay plates contained-media +0.1% DMSO for a negative control ,Then, 20 μl of a 5 mg/mL MTT solution was added to each well, and the plates were incubated for an additional 2~4 h at 37 °C. The medium was subsequently discarded, and DMSO 150 μL was added to dissolve the formazan. Oscillate 15 min, the OD 570 was measured using a Spectra MAX M5 microplate spectrophotometer (Molecular Devices, CA, USA), and the IC50 values were calculated.
Compound MIC was conducted by ShangHai Chempartner Co., Ltd (Shanghai, China) using the microplate Alamar Blue assay (MABA) against Mycobacterium tuberculosis H37Ra (ATCC 25177). Cytotoxicity of tested compounds was assessed on Vero cells.

[4] = system: M. tuberculosis H37Rv; experiment: MABA checkerboard synergy assay; assay type: cell-based, Mycobacterium tuberculosis; conditions: for MIC: Mycobacterium tuberculosis, H37RV, checkerboard, drug alone, read-out: MIC against H37Rv, MIC alone
[5] = system: XDR-TB clinical isolates; experiment: microbe, parasite or virus in culture; assay type: cell-based, Mycobacterium tuberculosis; conditions: Mycobacterium tuberculosis
[6] = molecular target: CYP2C19 (Homo sapiens, UniProt P33261); experiment: CYP inhibition; assay type: in vitro ADME
Description: (§1) The In vitro ADME/T assays were conducted at WuXi AppTec Co. Ltd.(Shanghai). ClogP was calculated with ChemDraw Ultra 14.0. In the study of bi-directional permeability across MDR1-MDCKII cell monolayer, permeability was correlated with the apparent permeability coefficient Papp (cm/s), which was interpreted as follows: Low permeability( Papp ≤ 1.0×10^-6 cm/s), Moderate permeability(1.0×10^-6 < Papp < 5.5×10^-6 cm/s) or High permeability( Papp ≥ 5.5×10^-6 cm/s). ^aaqueous solubility at room temperature.

[7] = molecular target: CYP2D6 (Homo sapiens, UniProt P10635); experiment: CYP inhibition; assay type: in vitro ADME
Description: as §1

[8] = molecular target: CYP2C9 (Homo sapiens, UniProt P11712); experiment: CYP inhibition; assay type: in vitro ADME
Description: as §1

[9] = molecular target: CYP3A4 (Homo sapiens, UniProt P08684); experiment: CYP inhibition; assay type: in vitro ADME
Description: as §1

[10] = system: MDR-TB clinical isolates; experiment: microbe, parasite or virus in culture; assay type: cell-based; conditions: Mycobacterium tuberculosis

CYP2D6, sequence (P10635 whole entry): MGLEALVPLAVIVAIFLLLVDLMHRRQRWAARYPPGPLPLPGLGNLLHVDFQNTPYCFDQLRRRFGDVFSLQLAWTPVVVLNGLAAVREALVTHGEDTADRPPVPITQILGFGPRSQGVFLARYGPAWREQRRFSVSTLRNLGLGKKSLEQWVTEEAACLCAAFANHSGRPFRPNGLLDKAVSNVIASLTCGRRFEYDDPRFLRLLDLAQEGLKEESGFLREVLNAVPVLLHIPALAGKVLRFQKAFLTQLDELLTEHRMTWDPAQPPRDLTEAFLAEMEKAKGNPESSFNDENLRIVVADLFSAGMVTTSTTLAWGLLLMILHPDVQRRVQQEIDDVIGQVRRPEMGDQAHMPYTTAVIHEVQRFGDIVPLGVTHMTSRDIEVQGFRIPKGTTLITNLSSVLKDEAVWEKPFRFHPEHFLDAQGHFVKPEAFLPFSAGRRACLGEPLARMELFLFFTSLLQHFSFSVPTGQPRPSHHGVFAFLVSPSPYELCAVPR
CYP2C9, sequence (P11712 whole entry): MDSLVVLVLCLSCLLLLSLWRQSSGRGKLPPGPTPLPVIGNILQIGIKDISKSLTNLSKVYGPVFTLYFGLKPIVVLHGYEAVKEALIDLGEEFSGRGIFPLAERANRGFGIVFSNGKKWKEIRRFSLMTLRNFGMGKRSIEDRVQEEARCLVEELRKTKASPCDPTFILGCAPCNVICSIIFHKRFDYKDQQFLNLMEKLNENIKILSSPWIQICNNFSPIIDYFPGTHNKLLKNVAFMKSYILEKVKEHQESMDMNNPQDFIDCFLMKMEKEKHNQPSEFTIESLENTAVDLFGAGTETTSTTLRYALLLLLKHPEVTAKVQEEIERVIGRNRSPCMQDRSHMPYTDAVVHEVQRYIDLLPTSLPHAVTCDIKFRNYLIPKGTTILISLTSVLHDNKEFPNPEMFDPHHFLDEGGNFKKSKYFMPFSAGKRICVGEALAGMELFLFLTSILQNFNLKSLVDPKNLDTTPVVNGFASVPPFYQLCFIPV
CYP2C19, sequence (P33261 whole entry): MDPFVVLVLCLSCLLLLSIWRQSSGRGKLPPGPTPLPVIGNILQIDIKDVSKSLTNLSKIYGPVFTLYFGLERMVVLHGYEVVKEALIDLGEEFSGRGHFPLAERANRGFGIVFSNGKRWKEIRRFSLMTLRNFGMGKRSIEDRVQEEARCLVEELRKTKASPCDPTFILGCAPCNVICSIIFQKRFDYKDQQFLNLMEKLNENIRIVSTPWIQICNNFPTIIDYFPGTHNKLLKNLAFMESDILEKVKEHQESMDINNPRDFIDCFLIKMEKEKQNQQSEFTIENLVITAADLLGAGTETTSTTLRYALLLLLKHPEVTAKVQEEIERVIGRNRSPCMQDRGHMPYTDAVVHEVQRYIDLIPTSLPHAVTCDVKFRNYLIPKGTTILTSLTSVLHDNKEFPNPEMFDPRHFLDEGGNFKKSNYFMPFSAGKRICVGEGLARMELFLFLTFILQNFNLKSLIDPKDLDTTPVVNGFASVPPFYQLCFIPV
CYP3A4, sequence (P08684 whole entry): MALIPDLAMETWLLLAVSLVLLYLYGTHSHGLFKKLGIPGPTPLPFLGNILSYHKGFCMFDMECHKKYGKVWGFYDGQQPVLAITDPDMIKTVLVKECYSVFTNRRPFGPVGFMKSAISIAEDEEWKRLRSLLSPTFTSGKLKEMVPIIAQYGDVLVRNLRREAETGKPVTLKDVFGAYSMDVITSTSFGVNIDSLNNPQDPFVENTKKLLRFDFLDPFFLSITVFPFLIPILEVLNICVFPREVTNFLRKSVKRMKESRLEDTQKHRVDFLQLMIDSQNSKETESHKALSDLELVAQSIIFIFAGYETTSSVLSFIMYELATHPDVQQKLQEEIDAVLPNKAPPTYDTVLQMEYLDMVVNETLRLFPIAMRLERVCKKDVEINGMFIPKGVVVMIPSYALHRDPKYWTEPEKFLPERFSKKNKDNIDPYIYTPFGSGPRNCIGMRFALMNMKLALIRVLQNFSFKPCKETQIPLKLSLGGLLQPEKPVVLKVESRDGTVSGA

`O=[N+]([O-])c1cc(C(F)(F)F)cc2c(=S)nc(N3CCC4(CC3)OCCO4)sc12` [SKLB-TB1001, 8-nitro-2-(1,4-dioxa-8-azaspiro[4.5]decan-8-yl)-6-(trifluoromethyl)-4H-benzo[e][1,3]thiazine-4-thione] was tested, and the “reduction of M.tb CFU in lungs compared to the vehicle group” value ([1]; 150 mg/kg daily for 4 weeks) was 3.4 logs, the “reduction of M.tb CFU in lungs compared to treatment initiation” value ([1]; 150 mg/kg daily for 4 weeks) was 0.87 logs and the “Log10 CFU (SD), bacterial burden in mouse lungs” value ([1]; Day-36, 150 mg/kg oral daily from day 10) was 2.84 (2.93). For the same compound, the “Log10 CFU, intracellular Mtb Erdman” value ([2]; J774A.1 macrophages, 0.02 μM (Fig. 2 legend: 0.02 μg/mL), 7 days) was 4.77, the “Fold(log) reduction” value [2] was 2.08 log and the “Fold(log) reduction” value ([2]; listed as SKLB-1001) was 2.1 log. The IC50 ([3]; Vero, cytotoxicity, read-out: IC50 Vero) was over 100 µg/mL, the IC50 ([3]; cytotoxicity on Vero cells, read-out: IC50) was over 20 µM and the MIC ([4]; 336 h) was 0.02 µg/mL. The MIC [4] was 0.02 µg/mL, the FICI ([4]; combination with linezolid) was 1.34 and the “MIC against H37Rv, MIC in combo.” value ([4]; in combination with INH) was 0.007 µg/mL. For the same compound, the “MIC against H37Rv, MIC in combo.” value ([4]; in combination with LZD) was 0.013 µg/mL, the “MIC against H37Rv, MIC in combo.” value ([4]; in combination with MOX) was 0.008 µg/mL and the FICI ([4]; in combination with RMP) was 0.22. For the same compound, the “MIC against H37Rv, MIC in combo.” value ([4]; in combination with RMP) was 0.001 µg/mL, the “decrease of MIC” value ([4]; in the presence of RMP) was 5 fold and the FICI ([4]; in the presence of isoniazid) was 0.68. It also gave an FICI ([4]; in the presence of moxifloxacin) of 0.97, an MIC ([5]; read-out: MIC, XDR-TB strain X15) of under 0.0156 µg/mL and an MIC ([5]; read-out: MIC, XDR-TB strain X17) of under 0.0156 µg/mL. It also gave an IC50 [6] of over 10 µM, an IC50 [7] of over 10 µM and an IC50 [8] of over 10 µM. For the same compound, the IC50 [9] was over 10 µM, the MIC ([10]; read-out: MIC, MDR-TB strain M3) was under 0.0156 µg/mL and the MIC ([10]; read-out: MIC, MDR-TB strain M4) was under 0.0156 µg/mL. The MIC ([10]; read-out: MIC, MDR-TB strain M8) was under 0.0156 µg/mL and the MIC ([10]; read-out: MIC, MDR-TB strain M18) was under 0.0156 µg/mL.
